“Also recorded” adds a separate entry of the source.
Assays:
[1] = tested on: κ agonist U50,488-induced diuresis; settings: antagonism of U50,488-induced diuresis; cited from earlier work
[2] = tested on: κ agonist U50,488-induced diuresis; experiment: Antagonism of U50,488-induced diuresis in rats; type: in vivo, male Sprague-Dawley rats; settings: for antagonism of U50,488-induced diuresis (urine output), week 0: s.c., first 5 h after dosing, U50,488 10 mg/kg; for antagonism of U50,488-induced diuresis (urine output), week 1: single s.c. dose at week 0, no further dosing

Row | SMILES | duration of κ antagonist activity [1] | antagonism of U50,488-induced diuresis (urine output), week 0 [2] | antagonism of U50,488-induced diuresis (urine output), week 1 [2] | antagonism of the diuretic effects of U50,488 at individual doses ([2]; 10 and 30 mg/kg s.c., week 0, Dunnett's test vs U50,488) | duration of activity as antagonist of U50,488-induced diuresis ([2]; single s.c. dose)
1 | Oc1ccc2c3c1O[C@H]1c4[nH]c5c(c4C[C@@]4(O)[C@@H](C2)N(CC2CC2)CC[C@]314)C[C@@]1(O)[C@H]2Cc3ccc(O)c4c3[C@@]1(CCN2CC1CC1)[C@H]5O4 [Compound 1, norBNI] | up to 3 weeks |  |  |  | 
2 | CC(C)[C@@H](CN1CC[C@@](C)(c2cccc(O)c2)[C@@H](C)C1)NC(=O)[C@H]1Cc2ccc(O)cc2CN1 [Compound 3, (3R)-7-Hydroxy-N-[(1S)-1-{[(3R,4R)-4-(3-hydroxyphenyl)-3,4-dimethyl-1-piperidinyl]methyl}-2-methylpropyl)-1,2,3,4-tetrahydro-3-isoquinolinecarboxamide, reference compound] |  | dose-related antagonism | continued to show dose-related antagonism |  | 
3 | CC(C)[C@@H](CN1CC[C@@](C)(c2cccc(O)c2)[C@@H](C)C1)NC(=O)[C@@H]1CCc2cc(O)ccc2C1 [Compound 7a, 6-Hydroxy-1,2,3,4-tetrahydro-naphthalene-2(+)-carboxylic acid-{1-[4-(3-hydroxyphenyl)-(3R,4R)-trans-dimethyl-piperidinylmethyl]-(2S)-methylpropyl}amide] |  | antagonized selective κ agonist U50,488-induced diuresis; also recorded: dose-related antagonism | did not show any κ antagonist activity after one week; also recorded: antagonism of U50,488 could no longer be detected | significant antagonism | less than 1 week

— paper PMC2912403 (Journal of medicinal chemistry, 2010)
